The NIST ThermoML archive (doi:10.1021/je900665a)

Conditions: Capillary rise

CCOCC [diethyl ether]
Conditions	surface tension liquid-gas [mN/m]
258.17 K	21.49
263.17 K	20.76
268.18 K	20.13
273.18 K	19.62
278.18 K	18.97
283.18 K	18.46
288.18 K	17.82
293.16 K	17.15
298.1 K	16.58
303.17 K	16
308.11 K	15.44
313.19 K	14.87
318.16 K	14.14
323.16 K	13.61
328.12 K	12.96
333.18 K	12.46
338.17 K	11.92
343.17 K	11.28
348.17 K	10.75
353.19 K	10.19
358.18 K	9.575
363.16 K	9.014
368.18 K	8.459
373.17 K	7.914

CC(C)OC(C)C [diisopropyl ether]
Conditions	surface tension liquid-gas [mN/m]
248.07 K	22.7
253.23 K	22.06
258.1 K	21.55
263.18 K	21.02
268.33 K	20.52
273.46 K	19.93
278.5 K	19.26
283.18 K	18.81
288.18 K	18.3
293.16 K	17.82
298.1 K	17.26
303.17 K	16.76
308.08 K	16.18
313.27 K	15.66
318.17 K	15.09
323.19 K	14.58
328.12 K	14.1
333.12 K	13.68
338.11 K	13.15
343.1 K	12.57
348.1 K	12.11
353.1 K	11.57
358.15 K	11.01
363.17 K	10.56
368.17 K	10.04
373.17 K	9.698

CCCCCCC [heptane]
Conditions	surface tension liquid-gas [mN/m]
298.13 K	20
303.18 K	19.58
308.12 K	18.97
313.18 K	18.41
318.17 K	17.97
323.2 K	17.48
328.15 K	16.92
